Test results as given in patent US20100298141A1, “SUBSTITUTED PYRIDINE N-OXIDE HERBICIDES” (E. I. DU PONT DE NEMOURS AND COMPANY, priority 2007, published 2010).

Key:
[1] = test system: downy brome; experiment: Test C pre-/postemergence test; assay type: in vivo, Bromus tectorum; details: for Plant response rating, Bromegrass, Downy: scale 0 to 100, 0 no effect, 100 complete control
Method in brief: (§1)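 Seeds were planted and treated preemergence with test chemical in a non-phytotoxic solvent mixture containing surfactant. Postemergence applications of the same formulation went onto plants 2 to 18 cm tall (1- to 4-leaf stage). A dash marks no test result.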

[2] = test system: wild oat; experiment: Test C pre-/postemergence test; assay type: in vivo, Avena fatua; details: for Plant response rating, Oat, Wild: scale 0 to 100, 0 no effect, 100 complete control
Method in brief: as §1

[3] = test system: blackgrass; experiment: Test C pre-/postemergence test; assay type: in vivo, Alopecurus myosuroides; details: for Plant response rating, Blackgrass: scale 0 to 100, 0 no effect, 100 complete control
Method in brief: as §1

[4] = test system: bermudagrass; experiment: Test C pre-/postemergence test; assay type: in vivo, Cynodon dactylon; details: for Plant response rating, Bermudagrass: scale 0 to 100, 0 no effect, 100 complete control
Method in brief: as §1

[5] = test system: catchweed bedstraw; experiment: Test C pre-/postemergence test; assay type: in vivo, Galium aparine
Method in brief: as §1

[6] = test system: kochia; experiment: Test C pre-/postemergence test; assay type: in vivo, Kochia scoparia; details: for Plant response rating, Kochia: scale 0 to 100, 0 no effect, 100 complete control
Method in brief: as §1

[7] = test system: lambsquarters; experiment: Test C pre-/postemergence test; assay type: in vivo, Chenopodium album; details: for Plant response rating, Lambsquarters: scale 0 to 100, 0 no effect, 100 complete control
Method in brief: as §1

[8] = test system: rice; experiment: Test C flooded paddy test; assay type: in vivo, Oryza sativa; details: Flood
Method in brief: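 Under a constant 3 cm flood, test compounds went directly into the paddy water. Following 13 to 15 days of greenhouse growth, treated species and controls were compared by eye.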

[9] = test system: yellow nutsedge; experiment: Test C pre-/postemergence test; assay type: in vivo, Cyperus esculentus; details: for Plant response rating, Nutsedge, Yellow: scale 0 to 100, 0 no effect, 100 complete control
Method in brief: as §1

[10] = test system: redroot pigweed; experiment: Test A pre-/postemergence greenhouse test; assay type: in vivo, Amaranthus retroflexus; details: for Pigweed plant response rating: 0 to 100 scale
Method in brief: (§2)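 Test compounds in non-phytotoxic solvent with surfactant were applied as a preemergence soil spray to seeded loam/sand pots and, concurrently, postemergence to plants at 2–10 cm, one- to two-leaf stage. About ten days in greenhouse, then injury visually rated against untreated controls.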

[11] = test system: morningglory; experiment: Test A pre-/postemergence greenhouse test; assay type: in vivo, Ipomoea spp.; details: for Morningglory plant response rating: 0 to 100 scale
Method in brief: as §2

[12] = test system: soybean; experiment: Test C pre-/postemergence test; assay type: in vivo, Glycine max; details: for Plant response rating, Soybean: scale 0 to 100, 0 no effect, 100 complete control
Method in brief: as §1

[13] = test system: woolly cupgrass; experiment: Test C pre-/postemergence test; assay type: in vivo, Eriochloa villosa; details: for Plant response rating, Cupgrass, Woolly: scale 0 to 100, 0 no effect, 100 complete control
Method in brief: as §1

[14] = test system: cocklebur; experiment: Test C pre-/postemergence test; assay type: in vivo, Xanthium strumarium; details: for Plant response rating, Cocklebur: scale 0 to 100, 0 no effect, 100 complete control
Method in brief: as §1

[15] = test system: green foxtail; experiment: Test C pre-/postemergence test; assay type: in vivo, Setaria viridis; details: for Plant response rating, Foxtail, Green: scale 0 to 100, 0 no effect, 100 complete control
Method in brief: as §1

[16] = 31 g ai/ha, Preemergence, scale 0 to 100
[17] = 62 g ai/ha, preemergence, scale 0 (no effect) to 100 (complete control)
[18] = preemergence, 125 g ai/ha, scale 0 (no effect) to 100 (complete control)
[19] = Postemergence, 125 g ai/ha, 0 is no effect, 100 is complete control
[20] = Postemergence, 500 g ai/ha, 0 is no effect, 100 is complete control
[21] = Preemergence, 125 g ai/ha, 0 no effect, 100 complete control
[22] = Preemergence, 500 g ai/ha, 0 to 100 scale where 0 is no effect and 100 is complete control

Question: What does the source list for CC(c1c(C(F)(F)F)nn(C)c1OC(F)F)S(=O)(=O)c1cccc[n+]1[O-] (centres unmarked) [Compound 5]?
Answer: Bromegrass, Downy plant response rating [1, 16]: 0; Bromegrass, Downy plant response rating [1, 17]: 20; Plant response rating (0 to 100), Bromegrass, Downy ([1]; Postemergence, 31 g ai/ha): 0; Plant response rating, Bromegrass, Downy ([1]; Postemergence, 62 g ai/ha): 0; Plant response rating, Bromegrass, Downy ([1]; Postemergence, 125 g ai/ha): 0; Plant response rating, Bromegrass, Downy ([1]; Postemergence, 250 g ai/ha): 0; Plant response rating (0 to 100), Bromegrass, Downy ([1]; Preemergence, 250 g ai/ha): 60; Bromegrass, Downy plant response rating [1, 18]: 25; Oat, Wild plant response rating [2, 16]: 20; Oat, Wild plant response rating [2, 17]: 60; Plant response rating (0 to 100), Oat, Wild ([2]; Postemergence, 31 g ai/ha): 0; Plant response rating, Oat, Wild ([2]; Postemergence, 62 g ai/ha): 0; Plant response rating, Oat, Wild ([2]; Postemergence, 125 g ai/ha): 0; Plant response rating, Oat, Wild ([2]; Postemergence, 250 g ai/ha): 30; Plant response rating (0 to 100), Oat, Wild ([2]; Preemergence, 250 g ai/ha): 75; Oat, Wild plant response rating [2, 18]: 70; Blackgrass plant response rating [3, 16]: 80; Blackgrass plant response rating [3, 17]: 100; Plant response rating (0 to 100), Blackgrass ([3]; Postemergence, 31 g ai/ha): 0; Plant response rating, Blackgrass ([3]; Postemergence, 62 g ai/ha): 0; Plant response rating, Blackgrass ([3]; Postemergence, 250 g ai/ha): 40; Plant response rating (0 to 100), Blackgrass ([3]; Preemergence, 250 g ai/ha): 100; Blackgrass plant response rating [3, 18]: 100; Bermudagrass plant response rating [4, 16]: 100; Bermudagrass plant response rating [4, 17]: 100; Plant response rating (0 to 100), Bermudagrass ([4]; Postemergence, 31 g ai/ha): 5; Plant response rating, Bermudagrass ([4]; Postemergence, 62 g ai/ha): 40; Plant response rating, Bermudagrass ([4]; Postemergence, 125 g ai/ha): 60; Plant response rating, Bermudagrass ([4]; Postemergence, 250 g ai/ha): 60; Plant response rating (0 to 100), Bermudagrass ([4]; Preemergence, 250 g ai/ha): 100; Bermudagrass plant response rating [4, 18]: 100; Galium plant response rating [5, 16]: 85; Galium plant response rating [5, 17]: 90; Plant response rating (0 to 100), Galium ([5]; Preemergence, 250 g ai/ha): 100; Galium plant response rating [5, 18]: 100; Kochia plant response rating [6, 16]: 80; Kochia plant response rating [6, 17]: 100; Plant response rating (0 to 100), Kochia ([6]; Postemergence, 31 g ai/ha): 0; Plant response rating, Kochia ([6]; Postemergence, 62 g ai/ha): 0; Plant response rating, Kochia ([6]; Postemergence, 125 g ai/ha): 0; Plant response rating, Kochia ([6]; Postemergence, 250 g ai/ha): 0; Plant response rating (0 to 100), Kochia ([6]; Preemergence, 250 g ai/ha): 100; Kochia plant response rating [6, 18]: 100; Lambsquarters plant response rating [7, 16]: 100; Lambsquarters plant response rating [7, 17]: 100; Plant response rating (0 to 100), Lambsquarters ([7]; Postemergence, 31 g ai/ha): 0; Plant response rating, Lambsquarters ([7]; Postemergence, 62 g ai/ha): 0; Plant response rating, Lambsquarters ([7]; Postemergence, 125 g ai/ha): 0; Plant response rating, Lambsquarters ([7]; Postemergence, 250 g ai/ha): 0; Plant response rating (0 to 100), Lambsquarters ([7]; Preemergence, 250 g ai/ha): 100; Lambsquarters plant response rating [7, 18]: 100; Plant response rating, Rice ([8]; 31 g ai/ha, scale 0 to 100 (0 no effect, 100 complete control)): 40; Plant response rating, Rice ([8]; 62 g ai/ha, scale 0 to 100, 0 no effect, 100 complete control, 13 to 15 days): 80; Plant response rating, Rice ([8]; 125 g ai/ha, scale 0 to 100, 0 no effect, 100 complete control, 13 to 15 days): 85; Plant response rating, Rice ([8]; 250 g ai/ha, scale 0 to 100 (0 no effect, 100 complete control)): 85; Nutsedge, Yellow plant response rating [9, 16]: 80; Nutsedge, Yellow plant response rating [9, 17]: 95; Plant response rating (0 to 100), Nutsedge, Yellow ([9]; Postemergence, 31 g ai/ha): 0; Plant response rating, Nutsedge, Yellow ([9]; Postemergence, 62 g ai/ha): 0; Plant response rating, Nutsedge, Yellow ([9]; Postemergence, 125 g ai/ha): 0; Plant response rating, Nutsedge, Yellow ([9]; Postemergence, 250 g ai/ha): 10; Plant response rating (0 to 100), Nutsedge, Yellow ([9]; Preemergence, 250 g ai/ha): 100; Nutsedge, Yellow plant response rating [9, 18]: 100; Pigweed plant response rating [10, 19]: 60; Pigweed plant response rating [10, 20]: 80; Pigweed plant response rating [10, 21]: 100; Plant response rating, Pigweed [10, 22]: 100; Morningglory plant response rating [11, 19]: 60; Morningglory plant response rating [11, 20]: 90; Morningglory plant response rating [11, 21]: 90; Plant response rating, Morningglory [11, 22]: 100; Soybean plant response rating [12, 16]: 0; Plant response rating (0 to 100), Soybean ([12]; Postemergence, 31 g ai/ha): 0; Plant response rating (0 to 100), Soybean ([12]; Postemergence, 62 g ai/ha): 20; Plant response rating, Soybean ([12]; Postemergence, 125 g ai/ha): 35; Plant response rating, Soybean ([12]; Postemergence, 250 g ai/ha): 70; Plant response rating (0 to 100), Soybean ([12]; Preemergence, 250 g ai/ha): 0; Cupgrass, Woolly plant response rating [13, 16]: 85; Cupgrass, Woolly plant response rating [13, 17]: 90; Plant response rating (0 to 100), Cupgrass, Woolly ([13]; Postemergence, 31 g ai/ha): 0; Plant response rating, Cupgrass, Woolly ([13]; Postemergence, 62 g ai/ha): 40; Plant response rating, Cupgrass, Woolly ([13]; Postemergence, 125 g ai/ha): 40; Plant response rating, Cupgrass, Woolly ([13]; Postemergence, 250 g ai/ha): 50; Plant response rating (0 to 100), Cupgrass, Woolly ([13]; Preemergence, 250 g ai/ha): 100; Cupgrass, Woolly plant response rating [13, 18]: 100; Cocklebur plant response rating [14, 16]: 0; Cocklebur plant response rating [14, 17]: 0; Plant response rating (0 to 100), Cocklebur ([14]; Postemergence, 31 g ai/ha): 0; Plant response rating, Cocklebur ([14]; Postemergence, 62 g ai/ha): 0; Plant response rating, Cocklebur ([14]; Postemergence, 125 g ai/ha): 0; Plant response rating, Cocklebur ([14]; Postemergence, 250 g ai/ha): 10; Plant response rating (0 to 100), Cocklebur ([14]; Preemergence, 250 g ai/ha): 0; Cocklebur plant response rating [14, 18]: 0; Foxtail, Green plant response rating [15, 16]: 100; Foxtail, Green plant response rating [15, 17]: 100; Plant response rating (0 to 100), Foxtail, Green ([15]; Postemergence, 31 g ai/ha): 0; Plant response rating, Foxtail, Green ([15]; Postemergence, 62 g ai/ha): 0; Plant response rating, Foxtail, Green ([15]; Postemergence, 125 g ai/ha): 60; Plant response rating, Foxtail, Green ([15]; Postemergence, 250 g ai/ha): 65; Plant response rating (0 to 100), Foxtail, Green ([15]; Preemergence, 250 g ai/ha): 100; Foxtail, Green plant response rating [15, 18]: 100
